The values that follow come from PubChem BioAssay (NCI).

The structures appear in SMILES notation. Values joined by “and” are separate entries in the source; they are usually repeats but may differ in a detail not shown here. Equal entries are not always repeated.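 Values below derive from 48-hour exposures of cells grown in 96-well plates, with endpoints linearly interpolated between the two concentrations bracketing the appropriate inhibition level. GI50 is the concentration that inhibits growth by half. The concentration for full growth arrest is given as TGI.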 Active and inactive are the calls of the source. No stated cut-off is given here; in the data, active means GI50 below about 0.43 µM; inactive means the rest.

Some test systems named below: XF 498 CNS; DLD-1 colon; DMS 114 small cell lung; RXF-631 renal; PC-3 prostate; NCI/ADR-RES ovarian; T-47D breast; MDA-MB-231 breast; DU-145 prostate; MCF7 breast.
What all share (assay): growth of human tumour cells (NCI), 48 h

As for `S=c1nc(-c2cccnc2)[nH][nH]1`, the TGI in the experiment with XF 498 CNS, with DLD-1 colon and in the experiment with DMS 114 small cell lung was over 100 µM each time.

Regarding `CCOC(=O)c1cc(/C=C/C(C)=C/C(=O)OC)n(C)c1C`, the TGI in the experiment on XF 498 CNS, in the experiment with DLD-1 colon and in the experiment on RXF-631 renal was over 100 µM in each case.

In the case of `COc1cc(Br)c(C=Nc2cccc3ccc(OS(=O)(=O)c4cccc([N+](=O)[O-])c4)cc23)cc1OC`, the TGI with DLD-1 colon and in the experiment on DMS 114 small cell lung was over 100 µM throughout.

In the case of `COc1ccc(/C=C2\C(=O)N(C(=O)Cc3ccccc3)N=C2C)cc1OC`, the TGI with XF 498 CNS and in the experiment on DMS 114 small cell lung was over 100 µM throughout.

Turning to `O=C(OC[C@H]1O[C@@H](OC(=O)c2cc(O)c(O)c(O)c2)[C@H](OC(=O)c2cc(O)c(O)c(O)c2)[C@@H](OC(=O)c2cc(O)c(O)c(O)c2)[C@@H]1OC(=O)c1cc(O)c(O)c(O)c1)c1cc(O)c(O)c(O)c1`, the TGI with XF 498 CNS was found to be 22.5 µM; with DLD-1 colon, 22.5 µM; with DMS 114 small cell lung, 15.9 µM.

With `CCOC(=O)CC1NC(=O)CS1` (stereo not drawn), the TGI in the experiment with DLD-1 colon was over 100 µM; in the experiment on RXF-631 renal, over 100 µM; with DMS 114 small cell lung, 57.8 µM.

`BrC1(Br)C2/C=C\CCCCC21` (stereo not drawn): the TGI in the experiment on XF 498 CNS was over 100 µM.

On to `COC(=O)c1c(-c2ccccc2)sc(-c2cccc3ccccc23)c1C(=O)OC`, for which, in the experiment on DLD-1 colon, the TGI was over 100 µM.

Take `O=[N+]([O-])c1ccc2c(c1)[O][Sn]([I])([I])[O]2`: the GI50 in the experiment with DLD-1 colon and in the experiment on DMS 114 small cell lung was over 100 µM throughout. For the same molecule, the TGI in the experiment on DLD-1 colon and in the experiment on DMS 114 small cell lung was over 100 µM throughout.

As for `OC12CC/C(=N/OCc3ccccc3)CC1c1ccccc12` (stereo not drawn), the TGI in the experiment on DLD-1 colon and with DMS 114 small cell lung was over 100 µM throughout.

For `C[C-](O)O.O/C(=C\[C-](O)c1ccccc1)c1ccccc1.O/C(=C\[C-](O)c1ccccc1)c1ccccc1.[Nd+3]` (stereo not drawn), the figures for the GI50 in the experiment with XF 498 CNS, in the experiment with DLD-1 colon and with DMS 114 small cell lung were 13.8 µM, 9.17 µM and 17.9 µM, respectively. Moreover, the TGI with XF 498 CNS was 36.2 µM; in the experiment on DLD-1 colon, 44.2 µM; with DMS 114 small cell lung it was 57 µM.

For the molecule `Nc1nc(CCC(=O)Nc2cccc(C(F)(F)F)c2)cc(-c2ccc3ccccc3c2)n1`, the TGI in the experiment with XF 498 CNS, in the experiment on DLD-1 colon and in the experiment on DMS 114 small cell lung was over 100 µM each time.

Regarding `O=c1[nH]c(=O)n(C2OC3COC2C3O)cc1F` (stereo not drawn), the TGI in the experiment with XF 498 CNS, in the experiment on DLD-1 colon and in the experiment on RXF-631 renal was over 100 µM in each case.

With `O=[N+]([O-])c1ccc2c(c1)[O][Sn][O]2`, in the experiment on XF 498 CNS, the outcome was inactive. Further, in the experiment with DMS 114 small cell lung, the GI50 was 66.2 µg/mL and the TGI is over 150 µg/mL.

In the case of `N.N.N.N.N.N.O=N[O-].[Br-].[Co+3].[Co+3].[OH3+].[OH3+]`, in the experiment on DLD-1 colon, the GI50 is over 100 µM and the TGI is over 100 µM.

In the experiment with DLD-1 colon, `CN1C(=O)C(Cl)(C(Cl)(Cl)S(=O)(=O)O)C(=O)c2ccccc21` (stereo not drawn) displayed a TGI of over 100 µM.

Turning to `CC[C@@]1(O)C(=O)OCc2c1cc1n(c2=O)Cc2cc3cc(N)ccc3nc2-1`, the GI50 was 0.141 µM and 0.0842 µM with PC-3 prostate; 0.149 µM and 0.138 µM in the experiment with XF 498 CNS; 0.0885 µM and 0.346 µM in the experiment on DLD-1 colon; 0.0476 µM with T-47D breast; 0.199 µM and 0.345 µM in the experiment with MDA-MB-231 breast; 0.0144 µM in the experiment with DU-145 prostate. Moreover, the GI50 with MCF7 breast is 0.00165 µM. The TGI is 0.169 µM and 0.116 µM in the experiment on NCI/ADR-RES ovarian; 1.39 µM and 0.864 µM in the experiment with XF 498 CNS; over 100 µM in the experiment with DLD-1 colon; 3.11 µM in the experiment with MDA-MB-231 breast; 5.73 µM with MCF7 breast.

As for `CN=C1SC(=Nc2ccc(N(C)C)cc2)N1C`, the results for the TGI in the experiment on DLD-1 colon and in the experiment with DMS 114 small cell lung were over 100 µM and 60.3 µM, respectively.

Take `CCOc1ccccc1NC(=O)CCc1nc(=S)[nH][nH]1`: the TGI with DLD-1 colon, in the experiment on RXF-631 renal and with DMS 114 small cell lung was over 100 µM in each case.

Consider `Cc1cc2c(=O)c3ccccc3[nH]c2c(C(=O)O)c1C`, for which the TGI in the experiment with XF 498 CNS, in the experiment with DLD-1 colon and in the experiment on DMS 114 small cell lung was over 100 µM each time.

As to `Cc1c(Cl)cccc1NC(=O)CC1C(=O)Nc2ccccc2S1(=O)=O` (stereo not drawn), the TGI with XF 498 CNS was found to be 30 µM; in the experiment with DLD-1 colon, 30.4 µM; in the experiment with DMS 114 small cell lung, 44.9 µM.

With `N#CC(NNC(=O)c1ccccc1O)c1cccc(O)c1` (stereo not drawn), the figures for the TGI with DLD-1 colon and in the experiment on DMS 114 small cell lung were over 100 µM and 11.1 µM, respectively.

In the case of `COC(=O)C1=C(CS(=O)c2ccccc2[N+](=O)[O-])ON(C)C1c1ccccc1` (stereo not drawn), the TGI in the experiment on XF 498 CNS is 86.2 µM; in the experiment on DLD-1 colon, over 100 µM; in the experiment on DMS 114 small cell lung it was 65.5 µM.

In the case of `C1=CC=C2NCCOCCNC3=CC=CC=CC3=NCCOCCN=C2C=C1`, the TGI in the experiment with DLD-1 colon, with RXF-631 renal and with DMS 114 small cell lung was over 100 µM each time.

`CC(=O)OC1[C@H]2c3cc4c(cc3CN3CCC(=C[C@@H]1O)C23)OCO4` (stereo partly drawn) showed a TGI with DLD-1 colon of over 100 µM.

Consider `CN[C@@H]1C[C@H]2O[C@@](C)([C@@H]1OC)n1c3ccccc3c3c4c(c5c6ccccc6n2c5c31)C(=O)N[C@@H]4O`, for which the TGI was 0.258 µM and 0.13 µM with PC-3 prostate; 0.3 µM and 0.42 µM with NCI/ADR-RES ovarian; 0.463 µM with XF 498 CNS; 15 µM in the experiment with DLD-1 colon; 0.202 µM in the experiment with MDA-MB-231 breast; 1.58 µM in the experiment on DMS 114 small cell lung. The TGI in the experiment on DU-145 prostate was 1.16 µM; in the experiment with MCF7 breast it was 0.3 µM and 2.51 µM. Moreover, the GI50 in the experiment with NCI/ADR-RES ovarian is 0.105 µM.

For the molecule `COc1cc(Cn2c(-c3nonc3N)nc3ccccc32)ccc1C`, the GI50 in the experiment with PC-3 prostate was 0.399 µM; with NCI/ADR-RES ovarian it was 0.362 µM; in the experiment on T-47D breast, 0.574 µM; in the experiment with MDA-MB-231 breast it was 1.02 µM; with DU-145 prostate, 0.605 µM; in the experiment on MCF7 breast, 0.348 µM. For the same molecule, the TGI is over 100 µM with PC-3 prostate; over 37.4 µM in the experiment on NCI/ADR-RES ovarian; over 100 µM with T-47D breast; 38.1 µM in the experiment with MDA-MB-231 breast; over 37.8 µM in the experiment with DU-145 prostate; over 100 µM in the experiment with MCF7 breast.

Regarding `O=c1ccc(=O)c2c(=O)c3ccccc3c(=O)c1=2`, the TGI in the experiment with XF 498 CNS is over 100 µM; in the experiment with DLD-1 colon it was over 100 µM; in the experiment with DMS 114 small cell lung it was 95.1 µM.

`Cn1c(=O)c2c(ncn2CN2CCN(Cn3cnc4c3c(=O)n(C)c(=O)n4C)CC2)n(C)c1=O`: the TGI with PC-3 prostate is over 100 µM; with NCI/ADR-RES ovarian, over 100 µM; in the experiment with T-47D breast, 89.1 µM; in the experiment with MDA-MB-231 breast, over 100 µM; with DU-145 prostate it was over 100 µM; in the experiment with MCF7 breast it was 35.7 µM.

As for `CC(C)[C@H]1C(=O)N[C@@H](CCCN=C(N)N)C(=O)NCC(=O)N[C@@H](CC(=O)O)C(=O)N[C@H](Cc2ccccc2)C(=O)N1C`, the GI50 in the experiment on PC-3 prostate was over 100 µM; in the experiment with NCI/ADR-RES ovarian, over 100 µM; with T-47D breast it was 2.87 µM; in the experiment on MDA-MB-231 breast it was 1.83 µM; with DU-145 prostate it was 7.66 µM; in the experiment on MCF7 breast, 1.4 µM. In addition, the TGI in the experiment with PC-3 prostate is over 100 µM; in the experiment on NCI/ADR-RES ovarian, over 100 µM; with T-47D breast it was over 29.4 µM; in the experiment on MDA-MB-231 breast, over 28.9 µM; in the experiment on DU-145 prostate, 70.6 µM; with MCF7 breast it was 3.32 µM.

As for `CCCCCCN(CCCCCC)CC(O)c1ccc2c3c(cccc13)CC2` (stereo not drawn), the GI50 in the experiment with PC-3 prostate was 10.9 µM; with NCI/ADR-RES ovarian it was 10.6 µM; in the experiment on T-47D breast, 3.28 µM; in the experiment with MDA-MB-231 breast, 6.86 µM; in the experiment with DU-145 prostate, 11.6 µM; in the experiment on MCF7 breast, 6.01 µM. Besides, the TGI was 28.7 µM in the experiment on PC-3 prostate; 26.2 µM in the experiment on NCI/ADR-RES ovarian; 16.6 µM in the experiment with T-47D breast; 21.3 µM with MDA-MB-231 breast; 24.7 µM in the experiment with DU-145 prostate; 20.8 µM in the experiment on MCF7 breast.

Turning to `C/C(=N\NC(N)=S)c1nc2ccc(Cl)cc2[nH]1`, the GI50 in the experiment with PC-3 prostate was 4.05 µM; with NCI/ADR-RES ovarian it was 1.21 µM; in the experiment with T-47D breast, 4.48 µM; in the experiment on MDA-MB-231 breast, 3.53 µM; with DU-145 prostate, 1.97 µM; in the experiment on MCF7 breast it was 1.64 µM. The TGI was 48.2 µM in the experiment with PC-3 prostate; over 50 µM in the experiment on NCI/ADR-RES ovarian; over 50 µM in the experiment on T-47D breast; 37.9 µM in the experiment on MDA-MB-231 breast; 8.8 µM in the experiment with DU-145 prostate; over 50 µM with MCF7 breast.

`CCN(CC)CCNc1n[n+]([O-])c2ccccc2[n+]1[O-]`: the TGI in the experiment on PC-3 prostate was over 100 µM; in the experiment with NCI/ADR-RES ovarian, 85.6 µM and > 100 µM; with T-47D breast it was 36.4 µM and 27.5 µM; in the experiment with MDA-MB-231 breast, 27.3 µM and 20.7 µM; with DU-145 prostate, 48.4 µM and 47.9 µM; in the experiment on MCF7 breast it was 37.6 µM and 26.2 µM. Besides, the GI50 in the experiment on MDA-MB-231 breast was 6.08 µM and 2.83 µM; in the experiment with MCF7 breast, 5.43 µM and 2.55 µM.

`COc1ccc(CN2c3ccccc3CCc3ccccc32)cc1F`: the GI50 was 0.489 µM in the experiment on PC-3 prostate; 0.456 µM in the experiment on NCI/ADR-RES ovarian; 0.394 µM with T-47D breast; 1.35 µM in the experiment on MDA-MB-231 breast; 0.481 µM with DU-145 prostate; 0.352 µM in the experiment with MCF7 breast. For the same molecule, the TGI was over 100 µM with PC-3 prostate; over 100 µM in the experiment with NCI/ADR-RES ovarian; over 100 µM in the experiment on T-47D breast; 79.7 µM in the experiment with MDA-MB-231 breast; over 100 µM in the experiment with DU-145 prostate; over 100 µM in the experiment with MCF7 breast.

For `C=C1C(=O)OC2/C=C(\C=O)CC/C=C(\C)C(O)C[C@@H]12` (stereo partly drawn), the values for the TGI in the experiment on XF 498 CNS, with DLD-1 colon and in the experiment on DMS 114 small cell lung were 16.1 µM, 8.93 µM and 26.6 µM, respectively.
